The text below walks through data of US4426382A, “4-Amino-6,7-dimethoxy-2-piperazinylquinazoline derivatives, their preparation and use” (Sankyo Company Limited, priority 1980, dated 1984).

The test system of this experiment is spontaneously hypertensive rats. The experiment in a line: antihypertensive activity: blood pressure after oral administration to conscious spontaneously hypertensive rats. The format is in vivo. The conditions noted are these: male spontaneously hypertensive rats. As to the method: The animals used in this test were 15 week old male spontaneously hypertensive rats. 3-5 rats were used to test each concentration of each compound. Each animal was treated as follows. […] A polyethylene cannula was then inserted into the abdominal aorta by the method of Weeks and Jones [J. R. Weeks and J. A. Jones, Proc. Soc. […] The other end of the cannula, leading out of the body, was fixed to the neck. One week after the operation, when the animal had recovered from post-operative invasion, this end of the cannula was connected to an apparatus to measure the blood pressure and heart beat directly without the need for any further anesthesia or restraint. The haemomanometer used was an improved type of that originated by Laffan et al. [P. J. Laffan, A. Peterson, S. W. Hitch and C.
The compound under test was suspended at the desired concentration in a 0.3% w/v aqueous solution of carboxymethylcellulose and administered orally in a volume of 2 ml/kg body weight. […] After administration of the sample, the blood pressure and heart beat of each animal were measured for 24 hours at 15 minute intervals.
For purposes of comparison, the same experiment was carried out with various concentrations of the known hypotensive agent, prazosin, in the form of its hydrochloride.
Δmax =Maximum change in blood pressure (mm/Hg) after administration of the compound under test;
Tmax =Time (in hours) after administration of the compound under test required for the blood pressure to obtain a maximum change;
T0.5 max =Time (in hours) after administration of the compound under test for the blood pressure to return to one-half of its maximum value.

Structures can show the parent of a compound that is named as a salt.

As to `CC=CC(=O)N1CCCN(c2nc(N)c3cc(OC)c(OC)cc3n2)CC1` [9 hydrochloride hydrate], for the setting “dose 3 mg/kg oral”, the “T0.5 max, time after administration for the blood pressure to return to one-half of its maximum value” (shortened to “T0.5 max, time after administration”) was found to be 3.5 h; the “Tmax, time after administration required for the blood pressure to obtain a maximum change” value (“Tmax, time … to obtain a maximum change” for short) is 0.5 h; the “Δmax, maximum change in blood pressure after administration” value (from here on “Δmax, maximum change in blood pressure”) was -25 mmHg. Also, where the note is “dose 30 mg/kg oral”, the “T0.5 max, time after administration” value was 5 h; the “Tmax, time … to obtain a maximum change” value was found to be 0.75 h; the “Δmax, maximum change in blood pressure” value is -35 mmHg.
For the molecule `COc1cc2nc(N3CCN(C(=O)c4ccc(OCc5ccccc5)c(Cl)c4)CC3)nc(N)c2cc1OC` [98 hydrochloride hemihydrate], under “dose 30 mg/kg oral”, the “T0.5 max, time after administration” value turned out to be 8 h; the “Tmax, time … to obtain a maximum change” value stood at 4 h; the “Δmax, maximum change in blood pressure” value is on record as -30 mmHg.
With `CC=CC(=O)N1CCN(c2nc(N)c3cc(OC)c(OC)cc3n2)CC1` [1 hydrochloride hydrate], where the note is “dose 3 mg/kg oral”, the “T0.5 max, time after administration” value was determined as 8 h; the “Tmax, time … to obtain a maximum change” value stood at 0.25 h; the “Δmax, maximum change in blood pressure” value was -35 mmHg. In addition, under “dose 30 mg/kg oral”, the “T0.5 max, time after administration” value was 12 h; the “Tmax, time … to obtain a maximum change” value is 0.5 h; the “Δmax, maximum change in blood pressure” value is listed as -40 mmHg.
With `CC=C(C)C(=O)N1CCN(c2nc(N)c3cc(OC)c(OC)cc3n2)CC1` [Compound No. 3, 4-Amino-2-[4-(2,3-dimethylacryloyl)-1-piperazinyl]-6,7-dimethoxyquinazoline], for the setting “dose 30 mg/kg oral”, the “T0.5 max, time after administration” value turned out to be 2 h; the “Tmax, time … to obtain a maximum change” value came out at 0.5 h; the “Δmax, maximum change in blood pressure” value is on record as -30 mmHg.
In the case of `CCCC=CC(=O)N1CCN(c2nc(N)c3cc(OC)c(OC)cc3n2)CC1` [Compound No. 8, 4-Amino-2-[4-(2-hexenoyl)-1-piperazinyl]-6,7-dimethoxyquinazoline], where the note is “dose 3 mg/kg oral”, the “T0.5 max, time after administration” value turned out to be 4.5 h; the “Tmax, time … to obtain a maximum change” value was 0.5 h; the “Δmax, maximum change in blood pressure” value is -35 mmHg. Further, for the setting “dose 30 mg/kg oral”, the “T0.5 max, time after administration” value is 7 h; the “Tmax, time … to obtain a maximum change” value was determined as 0.5 h; the “Δmax, maximum change in blood pressure” value is -40 mmHg.
`COc1cc2nc(N3CCN(C(=O)c4ccc(OC(C)c5ccccc5)cc4)CC3)nc(N)c2cc1OC` (stereo not shown) [103 hydrochloride sesquihydrate]: under “dose 10 mg/kg oral”, the “T0.5 max, time after administration” value is 9.5 h; the “Tmax, time … to obtain a maximum change” value was in the range of 5 to 6 h; the “Δmax, maximum change in blood pressure” value is given as -30 mmHg. Under “dose 30 mg/kg oral”, the “T0.5 max, time after administration” value stood at 13 h; the “Tmax, time … to obtain a maximum change” value is 5 to 6 h; the “Δmax, maximum change in blood pressure” value is -41 mmHg.
`COc1cc2nc(N3CCN(C(=O)c4ccc(OCc5ccccc5)c(OC)c4)CC3)nc(N)c2cc1OC` [94 hydrochloride hemihydrate]: where the note is “dose 30 mg/kg oral”, the “T0.5 max, time after administration” value amounted to 7 h; the “Tmax, time … to obtain a maximum change” value turned out to be 5 h; the “Δmax, maximum change in blood pressure” value is reported as -28 mmHg.
Regarding `C=CCCC(=O)N1CCN(c2nc(N)c3cc(OC)c(OC)cc3n2)CC1` [Compound No. 6, 4-Amino-6,7-dimethoxy-2-[4-(4-pentenoyl)-1-piperazinyl]quinazoline], under “dose 3 mg/kg oral”, the “T0.5 max, time after administration” value is 8 h; the “Tmax, time … to obtain a maximum change” value turned out to be 0.5 h; the “Δmax, maximum change in blood pressure” value is -40 mmHg. For the same molecule, for the setting “dose 30 mg/kg oral”, the “T0.5 max, time after administration” value was determined as 13 h; the “Tmax, time … to obtain a maximum change” value turned out to be 0.5 h; the “Δmax, maximum change in blood pressure” value is -65 mmHg.
As for `COc1cc2nc(N3CCN(C(=O)C4(c5ccccc5)CC4)CC3)nc(N)c2cc1OC` [33 hydrochloride hydrate], where the note is “dose 30 mg/kg oral”, the “T0.5 max, time after administration” value stood at 8.5 h; the “Tmax, time … to obtain a maximum change” value stood at 1 h; the “Δmax, maximum change in blood pressure” value is -50 mmHg.
For `COc1cc2nc(N3CCN(C(=O)CCc4ccccc4)CC3)nc(N)c2cc1OC` [29 hydrochloride hydrate], under “dose 3 mg/kg oral”, the “T0.5 max, time after administration” value was determined as 8 h; the “Tmax, time … to obtain a maximum change” value came out at 2 h; the “Δmax, maximum change in blood pressure” value is -30 mmHg. Where the note is “dose 30 mg/kg oral”, the “T0.5 max, time after administration” value was found to be 12 h; the “Tmax, time … to obtain a maximum change” value was 5 h; the “Δmax, maximum change in blood pressure” value is -45 mmHg.
Regarding `CCC=CC(=O)N1CCN(c2nc(N)c3cc(OC)c(OC)cc3n2)CC1` [5 hydrochloride], under “dose 3 mg/kg oral”, the “Tmax, time … to obtain a maximum change” value was 0.5 h and the “Δmax, maximum change in blood pressure” value is given as -40 mmHg. For the same molecule, the “T0.5 max, time after administration” value (dose 3 mg/kg oral, 3 mg/kg) stood at 7 h. In addition, under “dose 30 mg/kg oral, 30 mg/kg”, the “T0.5 max, time after administration” value worked out at 14 h; the “Tmax, time … to obtain a maximum change” value amounted to 0.75 h; the “Δmax, maximum change in blood pressure” value is -48 mmHg.
For `COc1cc2nc(N3CCN(C(=O)[C@@H]4C[C@H]4c4ccccc4)CC3)nc(N)c2cc1OC` (relative stereo) [34 hydrochloride hydrate], under “dose 3 mg/kg oral”, the “T0.5 max, time after administration” value worked out at 8 h; the “Tmax, time … to obtain a maximum change” value was 1 h; the “Δmax, maximum change in blood pressure” value is recorded as -33 mmHg. Also, where the note is “dose 10 mg/kg oral”, the “T0.5 max, time after administration” value came to 12 h; the “Tmax, time … to obtain a maximum change” value amounted to 2 h; the “Δmax, maximum change in blood pressure” value is -50 mmHg.
For the molecule `COc1cc2nc(N3CCN(C(=O)c4ccco4)CC3)nc(N)c2cc1OC` [prazosin hydrochloride, prazosin, reference compound], under “dose 3 mg/kg oral”, the “Tmax, time … to obtain a maximum change” value was 0.5 h and the “Δmax, maximum change in blood pressure” value is -35 mmHg. Further, for the setting “dose 30 mg/kg oral”, the “Tmax, time … to obtain a maximum change” value turned out to be 1 h and the “Δmax, maximum change in blood pressure” value is reported as -50 mmHg.
Regarding `COc1cc2nc(N3CCN(C(=O)C(C)Oc4ccccc4)CC3)nc(N)c2cc1OC` (stereo not shown) [25 hydrochloride hemihydrate], for the setting “dose 1 mg/kg oral”, the “T0.5 max, time after administration” value came out at 7 h; the “Tmax, time … to obtain a maximum change” value is 1 h; the “Δmax, maximum change in blood pressure” value is -40 mmHg. For the same molecule, for the setting “dose 3 mg/kg oral”, the “T0.5 max, time after administration” value was 14 h; the “Tmax, time … to obtain a maximum change” value came to 1 h; the “Δmax, maximum change in blood pressure” value is given as -70 mmHg.
For `COc1cc2nc(N3CCN(C(=O)COc4ccccc4)CC3)nc(N)c2cc1OC` [27 hydrochloride hydrate], for the setting “dose 3 mg/kg oral”, the “T0.5 max, time after administration” value was 8 h; the “Tmax, time … to obtain a maximum change” value came to 5 h; the “Δmax, maximum change in blood pressure” value is on record as -20 mmHg. Besides, for the setting “dose 30 mg/kg oral”, the “T0.5 max, time after administration” value is 8 h; the “Tmax, time … to obtain a maximum change” value turned out to be 5 h; the “Δmax, maximum change in blood pressure” value is given as -40 mmHg.
Consider `COc1cc2nc(N3CCN(C(=O)C=C4CCCC4)CC3)nc(N)c2cc1OC` [32 hydrochloride hydrate], for which, for the setting “dose 3 mg/kg oral”, the “T0.5 max, time after administration” value turned out to be 10 h; the “Tmax, time … to obtain a maximum change” value is 1 to 2 h; the “Δmax, maximum change in blood pressure” value was -40 mmHg. Further, for the setting “dose 30 mg/kg oral”, the “T0.5 max, time after administration” value came out at 7 h; the “Tmax, time … to obtain a maximum change” value lay within 1 to 2 h; the “Δmax, maximum change in blood pressure” value is -80 mmHg.
In the case of `COc1cc2nc(N3CCN(C(=O)C=C(C)C)CC3)nc(N)c2cc1OC` [Compound No. 4, 4-Amino-2-[4-(3,3-dimethylacryloyl)-1-piperazinyl]-6,7-dimethoxyquinazoline], for the setting “dose 30 mg/kg oral”, the “T0.5 max, time after administration” value was determined as 3 h; the “Tmax, time … to obtain a maximum change” value was found to be 0.5 h; the “Δmax, maximum change in blood pressure” value was -30 mmHg.
